{"source": "BindingDB's records for doi:10.7270/Q2NV9GP9", "about": "(Burnham Center For Chemical Genomics, 2010)"}
{"target": "T1, Apelin receptor (Homo sapiens, UniProt P35414)", "T1 sequence (P35414 whole entry)": "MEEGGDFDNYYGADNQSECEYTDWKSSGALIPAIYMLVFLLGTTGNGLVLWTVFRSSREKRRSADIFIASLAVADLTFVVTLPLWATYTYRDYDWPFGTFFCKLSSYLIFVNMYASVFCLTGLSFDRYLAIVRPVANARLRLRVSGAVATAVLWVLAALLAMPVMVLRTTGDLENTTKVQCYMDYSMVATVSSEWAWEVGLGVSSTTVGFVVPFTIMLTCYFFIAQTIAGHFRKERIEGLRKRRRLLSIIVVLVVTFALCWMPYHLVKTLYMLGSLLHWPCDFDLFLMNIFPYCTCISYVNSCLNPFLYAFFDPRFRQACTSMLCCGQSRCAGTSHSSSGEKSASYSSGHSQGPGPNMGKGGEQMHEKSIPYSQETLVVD", "assay": "APJ agonists inducing beta-arrestin recruitment, dose response, cell-based, luminescence, uHTS hits (AID 488748)", "units": {"EC50": "µM"}}
{"smiles": "Cc1cc(C)c2sc(N(CCCN(C)C)C(=O)c3ccc(S(=O)(=O)N4CCc5ccccc5C4)cc3)nc2c1", "note": "[MLS001239249]", "EC50": "> 100"}
{"smiles": "CSc1cccc(NC(=S)NC(=O)CCc2ccccc2)c1", "note": "[N-[(3-methylsulfanylphenyl)carbamothioyl]-3-phenyl-propanamide]", "EC50": "> 100"}
{"smiles": "CN(C)CCCN(C(=O)c1ccc(S(=O)(=O)N2CCc3ccccc3C2)cc1)c1nc2c(F)cccc2s1", "note": "[SMR000807825]", "EC50": "> 100"}
{"smiles": "CCN(CC)CCNC(=O)c1ccc(NC(=O)c2cc(-c3ccco3)nc3ccccc23)cc1", "EC50": "> 100"}
{"smiles": "C=CCn1c(SCC(=O)N2CCN(c3ccccc3)CC2)nc2c([nH]c3ccccc32)c1=O", "note": "[MLS001236003]", "EC50": "> 100"}
{"smiles": "COc1ccc2[nH]c(=O)c(CN(Cc3ccco3)C(c3nnnn3Cc3ccccc3)C(C)C)cc2c1", "note": "(centres undefined) [SMR000123514]", "EC50": "> 100"}
{"smiles": "CCOc1cc2[nH]c(=S)n(CC3CCCN3CC)c(=O)c2cc1OCC", "note": "(centres undefined) [SMR000030998]", "EC50": "> 100"}
{"smiles": "COc1cc2c(cc1NC(=O)c1cc(-c3ccncc3)nc3ccc(C)cc13)oc1ccccc12", "EC50": "> 100"}
{"smiles": "CCOC(=O)C1C(Cn2cnc3ccccc32)=NC(=O)NC1c1cc(C)ccc1C", "note": "(centres undefined) [ethyl 6-(benzimidazol-1-ylmethyl)-4-(2,5-dimethylphenyl)-2-oxidanylidene-3,4-dihydro-1H-pyrimidine-5-carboxylate]", "EC50": "> 100"}
{"smiles": "CCCSc1nc(O)c(CC)c(=O)n1C(C)CC", "note": "(centres undefined) [1-butan-2-yl-5-ethyl-6-oxidanyl-2-propylsulfanyl-pyrimidin-4-one]", "EC50": 56.9}
{"smiles": "O=c1oc2cc(OCc3ccc([N+](=O)[O-])cc3)ccc2c2c1CCCC2", "note": "[SMR000176214]", "EC50": "> 100"}
{"smiles": "COc1cccc2sc3cc(NCC[C@@H]4CCCN4C)ccc3c(=O)c12", "EC50": "> 100"}
{"smiles": "CCCCNc1c(-c2cccc(-c3ccc(OC)cc3)c2)nc2ccc(C)cn12", "note": "[N-butyl-2-[3-(4-methoxyphenyl)phenyl]-6-methylimidazo[1,2-a]pyridin-3-amine;2,2,2-trifluoroacetic acid]", "EC50": "> 100"}
{"smiles": "C=CCSc1nc(O)c(CC)c(=O)n1C(C)CC", "note": "(centres undefined) [1-butan-2-yl-5-ethyl-6-oxidanyl-2-prop-2-enylsulfanyl-pyrimidin-4-one]", "EC50": 78.9}
